Measured values from patent publication US11464770B2, “Anticancer pharmaceutical composition” (NATIONAL CANCER CENTER, priority 2016, dated 2022).
Read-outs that look alike come from different tables or passages of the source.

What was measured:
[1] = tested on: brain cancer cell lines; assay: Cell based assay, cell viability (CellTiter-Glo), brain cancer cell lines; conditions: Homo sapiens
[2] = tested on: lung cancer cell lines (e.g. NCI-H23, NCI-H1229); assay: Cell based assay, cell viability (CellTiter-Glo), lung cancer cell lines; conditions: Homo sapiens, 72 hours, cell viability (CellTiter-Glo)
Summary of the method: (§1)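 Each commercial line was plated and allowed 24 h to settle at constant temperature. Compound exposure ran 72 h at final concentrations spanning 0 to 2 μM. Cell viability was then determined by luminescent ATP detection.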

[3] = tested on: neuroblastoma cell lines; assay: Cell based assay, cell viability (CellTiter-Glo), neuroblastoma cell lines; conditions: Homo sapiens; SH-SY5Y cell line
Summary of the method: as §1

[4] = U138-MG, U-138 MG cell line, read-out: IC50, Brain cancer cell line U-138 MG
[5] = T98G cell line, read-out: IC50, Brain cancer cell line T98G
[6] = U-251 MG cell line, read-out: IC50, Brain cancer cell line U-251 MG
[7] = Lung cancer cell line A549, read-out: IC50, A549
[8] = Lung cancer cell line DMS 114, read-out: IC50, DMS 114
[9] = Lung cancer cell line NCI-H23, read-out: IC50, NCI-H23
[10] = Lung cancer cell line NCI-H460, read-out: IC50, NCI-H460
[11] = Lung cancer cell line NCI-H522, read-out: IC50, NCI-H522
[12] = Lung cancer cell line NCI-H1299, read-out: IC50, NCI-H1299
[13] = Lung cancer cell line NCI-H1437, read-out: IC50, NCI-H1437
[14] = MRC-5 (listed under Lung cancer cell line), read-out: IC50, MRC-5

SMILES: CC(=O)c1c([S+]([O-])Cc2ccc(Cl)nc2)[nH]c2c(Br)ccc(Cl)c2c1=O (stereo not drawn) [Compound 104, 3-acetyl-8-bromo-5-chloro-2-(((6-chloropyridin-3-yl)methyl)sulfinyl)quinolin-4(1H)-one]
- IC50 [1, 4]: 1.47 µM
- IC50 [1, 5]: > 10 µM
- IC50 [1, 6]: > 2 µM
- IC50 [2, 7]: 1680 nM
- IC50 [2, 8]: > 2000 nM
- IC50 [2, 9]: 1270 nM
- IC50 [2, 10]: 1510 nM
- IC50 [2, 11]: 1410 nM
- IC50 [2, 12]: 1170 nM
- IC50 [2, 13]: > 10000 nM
- IC50 [2, 14]: 1620 nM
- IC50 [3]: 600 nM

SMILES: COCCNc1ccc(C[S+]([O-])c2[nH]c3c(Br)ccc(Cl)c3c(=O)c2C(C)=O)cn1 (stereo not drawn) [Compound 105, 3-acetyl-8-bromo-5-chloro-2-(((6-((2-methoxyethyl)amino)pyridin-3-yl)methyl)sulfinyl)quinolin-4(1H)-one]
- IC50 [1, 4]: > 10 µM
- IC50 [1, 5]: > 10 µM
- IC50 [1, 6]: > 2 µM
- IC50 [2, 7]: > 2000 nM
- IC50 [2, 8]: > 2000 nM
- IC50 [2, 9]: > 2000 nM
- IC50 [2, 10]: > 2000 nM
- IC50 [2, 11]: > 2000 nM
- IC50 [2, 12]: > 2000 nM
- IC50 [2, 13]: > 10000 nM
- IC50 [2, 14]: > 2000 nM
- IC50 [3]: > 2000 nM

SMILES: CC(=O)c1c([S+]([O-])Cc2nonc2C)[nH]c2c(Br)ccc(Cl)c2c1=O (stereo not drawn) [Compound 106, 3-acetyl-8-bromo-5-chloro-2-(((4-methyl-1,2,5-oxadiazol-3-yl)methyl)sulfinyl)quinolin-4(1H)-one]
- IC50 [1, 4]: > 10 µM
- IC50 [1, 5]: > 10 µM
- IC50 [1, 6]: > 2 µM
- IC50 [2, 7]: > 2000 nM
- IC50 [2, 8]: > 2000 nM
- IC50 [2, 9]: > 2000 nM
- IC50 [2, 10]: > 2000 nM
- IC50 [2, 11]: > 2000 nM
- IC50 [2, 12]: > 2000 nM
- IC50 [2, 13]: > 10000 nM
- IC50 [2, 14]: > 2000 nM
- IC50 [3]: 1290 nM

SMILES: CC(=O)c1c([S+]([O-])Cc2cnc3[nH]ccc3c2)[nH]c2c(Br)ccc(Cl)c2c1=O (stereo not drawn) [Compound 107, 2-(((1H-pyrrolo[2,3-b]pyridin-5-yl)methyl)sulfinyl)-3-acetyl-8-bromo-5-chloroquinolin-4(1H)-one]
- IC50 [1, 4]: > 10 µM
- IC50 [1, 5]: > 10 µM
- IC50 [1, 6]: > 2 µM
- IC50 [2, 7]: > 2000 nM
- IC50 [2, 8]: > 2000 nM
- IC50 [2, 9]: > 2000 nM
- IC50 [2, 10]: > 2000 nM
- IC50 [2, 11]: > 2000 nM
- IC50 [2, 12]: > 2000 nM
- IC50 [2, 13]: > 10000 nM
- IC50 [2, 14]: > 2000 nM
- IC50 [3]: > 2000 nM
